Experiments:
Meloidogyne graminicola [1] = assay: Meloidogyne graminicola infection in rice, second experiment (Example 4); assay type: in vivo; conditions: infected rice, 100 μM; for median number of galls lower compared to untreated controls: 13 days after infection; for plants in which necrosis was present: absent in control plants; for Gall number: harvested 13 days after inoculation; for Gall number / Fraction of empty galls / Galls per adventitious root / Number of J2 / Number of J3 + J4 / Number of adults (with eggs) / Number of adults (without eggs) / Total nematodes: median (IQR); for Likelihood of necrosis: value ± spread
Description: Seeds were germinated on wet tissue paper at 30° C. in the dark for three days, followed by transfer to individual PVC tubes (for nematode infection) containing SAP (Reversat et al., 1999). SAP (sand-absorbent polymer) is a mixture of fine silica sand and ultra-absorbent acrylic copolymer (DCM AquaPerla, DSM, Grobbendonk, Belgium) in a ratio of 1 kg sand to 1.5 g of dry copolymer.
Before use, each tube was washed in soapy water and dried in an oven at 70° C. for two days. […] The first two days after transfer, the tubes were covered with a polyethylene film (Saran Film, Dow Chemicals, Midland, USA) to prevent excessive evaporation. Seedlings were watered three times per week with 8 ml of Hoagland solution (Hoagland, 1938).
M. graminicola was extracted from infected Echinocloa crus-galli roots grown in potting soil at 25° C. Roots were washed until most soil was removed, after which they were cut into short fragments (with special care taken to cut open any outwardly visible galls). The cut material was put in […] pore diameter sieves which were put into a tap water bath at room temperature for three days. The water was then poured over a […] mesh sieve. The sieve surface was washed with approximately 50 ml of non-demineralized water, which was collected into a beaker before it could seep through the sieve.
The number of nematodes in five 100 μl samples taken from the nematode suspension was counted under a stereo microscope and averaged to determine inoculum concentration. Each plant (grown per the protocol outlined in the previous section) was then inoculated by injecting the desired number of nematodes in the SAP surrounding the root system using a micro-pipette.
Infection experiments with M. graminicola were performed by inoculating host plants 14 days after transfer to SAP by introducing the desired amount of J2 juveniles next to the root system using a micro pipette. Rice plants (cv. Nipponbare or Kitaake) were inoculated with 250 J2 juveniles per plant; wheat plants (cv. Sahara) were inoculated with 600 J2 juveniles per plant. Plants were harvested 14 days after inoculation. At this point, the plants were phenotyped by measuring the shoot and root length with a ruler, counting the number of adventitious roots and in some experiments by measuring leaf area using the EasyLeafArea software (Easlon and Bloom, 2014) and by determining shoot dry mass after 72 hours of drying in an oven at 70° C. Root systems were then stained in acid fuchsine as described in (Byrd et al., 1983) and left to destain in glycerol with 1 ml/l fuming HCl added for approximately ten days. The number of galls and nematodes was then counted using a binocular microscope. […]
The second experiment was methodologically similar to the first. This time, plants were grown for 15 days before inoculation with 210 nematodes on average and harvested 13 days after inoculation. […]

Meloidogyne graminicola [2] = assay: Meloidogyne graminicola infection in wheat cv. Sahara (Example 5); assay type: in vivo; conditions: infected wheat, foliar spray; for Number of galls per AR / Number of galls: n = 9; for Number of galls: per root system; for reduction in gall numbers: vs control
Description: For Examples 1, 5 and 10, seeds of the winter wheat cultivar Sahara (Aveve Agrarisch, Landen, Belgium) were used. Seeds were washed in a 10% ethanol solution to remove any residual traces of fungicide and then germinated on wet paper at room temperature for four days; seeds were transferred to SAP tubes and placed in a growth chamber (25° C., 16 hours per day of light). Plants were watered with 8 ml of half-strength Hoagland solution every two days for the first ten days and with 8 ml of full strength Hoagland solution every two days afterwards.
Unless otherwise mentioned, all chemicals for nematode experiments were applied as a foliar spray consisting of the target compound at a concentration of 300 μM together with 0.1% (v/v) Tween 20 surfactant (Calbiochem) in distilled water. Again unless otherwise mentioned, all treatments for the nematode experiments were carried out three times: one and eight days before pathogen inoculation and seven days after pathogen inoculation. In all cases, plants were sprayed until run-off with an atomizer.
Infection experiments with M. graminicola were performed by inoculating host plants 14 days after transfer to SAP by introducing the desired amount of J2 juveniles next to the root system using a micro pipette. Rice plants (cv. Nipponbare or Kitaake) were inoculated with 250 J2 juveniles per plant; wheat plants (cv. Sahara) were inoculated with 600 J2 juveniles per plant. Plants were harvested 14 days after inoculation. At this point, the plants were phenotyped by measuring the shoot and root length with a ruler, counting the number of adventitious roots and in some experiments by measuring leaf area using the EasyLeafArea software (Easlon and Bloom, 2014) and by determining shoot dry mass after 72 hours of drying in an oven at 70° C. Root systems were then stained in acid fuchsine as described in (Byrd et al., 1983) and left to destain in glycerol with 1 ml/l fuming HCl added for approximately ten days. The number of galls and nematodes was then counted using a binocular microscope.
In this experiment, the compounds PA, MDCA and 4-IBA were tested as foliar spray in the monocot staple crop wheat (Triticum aestivum, cv. Sahara) against the nematode Meloidogyne graminicola. The bacterial compound LPS (lipopolysaccharide), which is a potent inducer of the plant immune system and a known priming agent (Desaki et al., 2006), was also included as a positive control.

OsPAL4 = assay: qRT-PCR in rice roots, OsPAL4 (Example 19); assay type: in vivo, Oryza sativa; conditions: rice cv. Bomba root tissue; 100 μM; harvested 13 days after germination; N=3 pools
Description: (§1) After quality control, qPCR was carried out.

OsICS1 = assay: qRT-PCR in rice roots, OsICS1 (Example 19); assay type: in vivo, Oryza sativa; conditions: rice cv. Bomba root tissue; 100 μM; harvested 13 days after germination; N=3 pools
Description: as §1

OsC4H = assay: qRT-PCR in rice roots, OsC4H (Example 19); conditions: rice cv. Bomba root tissue; 100 μM; harvested 13 days after germination; N=3 pools

Row | SMILES | median number of galls lower compared to untreated controls (Meloidogyne graminicola [1]) [%] | plants in which necrosis was present (Meloidogyne graminicola [1]) | Gall number (Meloidogyne graminicola [1]) | Fraction of empty galls (Meloidogyne graminicola [1]) | Galls per adventitious root (Meloidogyne graminicola [1]) | Number of J2 (Meloidogyne graminicola [1]) | Number of J3 + J4 (Meloidogyne graminicola [1]) | Number of adults (with eggs) (Meloidogyne graminicola [1]) | Number of adults (without eggs) (Meloidogyne graminicola [1]) | Total nematodes (Meloidogyne graminicola [1]) | Likelihood of necrosis (Meloidogyne graminicola [1]) | Number of galls per AR (Meloidogyne graminicola [2]) | Number of galls (Meloidogyne graminicola [2]) | reduction in gall numbers (Meloidogyne graminicola [2]) [%] | Fold change vs. control, OsPAL4 expression (OsPAL4) | Fold change vs. control, OsICS1 expression (OsICS1) | Fold change vs. control, OsC4H expression (OsC4H)
1 | O=C(O)/C=C/c1ccc2c(c1)OCO2 [MDCA, 3,4-methylenedioxycinnamic acid] | 28 | roughly 75% | 8.0 (IQR = 1.0) | 0.11 (IQR = 0.03) | 0.80 (IQR = 0.17) | 0.0 (IQR = 0.0) | 7.0 (IQR = 5.0) | 0.0 (IQR = 1.0) | 10.0 (IQR = 2.0) | 17.0 (IQR = 5.0) | 0.78 ± 0.44 | 2.4 ± 0.8 | 24.6 ± 6.3 | −35 | 2.38 | 1.73 | 3.73
2 | O=C(O)c1ccc2c(c1)OCO2 [PA, Piperonylic acid] | 36 | roughly 75% | 7.0 (IQR = 1.8) | 0.13 (IQR = 0.17) | 0.62 (IQR = 0.13) | 0.0 (IQR = 1.0) | 8.0 (IQR = 2.5) | 0.0 (IQR = 0.0) | 5.0 (IQR = 1.8) | 13.5 (IQR = 2.5) | 0.70 ± 0.48 | 2.5 ± 1.1 | 25.6 ± 6.5 | −33 | 3.04 | 1.36 | 9.87

Source: patent US11992011B2, “Compounds for controlling plant pathogens” (VIB VZW, priority 2017, dated 2024)
